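Five concentrations, 48 hours, 96-well plates. The concentration for 50% growth inhibition is given as GI50.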 Activity calls are given as the source filed them. Rule as the data show it: active = GI50 up to about 1.1 µM and inactive = higher.

Among the test systems are RXF 393; K562; HOP-92; DMS-273; HOP-62; SK-OV-3; HCT-116; 786-0; SF-268; SNB-78; XF498; U-251; SNB-19; OVCAR-5; M14; OVCAR-3; SF-295; HOP-18.
Common to all, as to assay: growth of human tumour cells (NCI), 48 h

Turning to `CCC(=O)C(C(=O)CC)c1c(OC(=O)c2ccccc2)ccc(O)c1C(=O)OC`, the GI50 in the test with RXF 393, in the test on K562, in the test with HOP-92, in the test on DMS-273, with HOP-62 and in the test with SK-OV-3 was > 100 µM (inactive) each time. Besides, the GI50 in the test with HCT-116, in the test on 786-0, in the test on SF-268, in the test with SNB-78, with XF498 and in the test on U-251 was > 100 µM (inactive) in each case. The GI50 in the test with SNB-19, in the test on OVCAR-5, with M14, in the test with OVCAR-3 and in the test with SF-295 was > 100 µM (inactive) in each case.
As to `Cc1cc(Br)ccc1/N=N/C1C(=O)ON=C1c1ccccc1` (stereo unspecified), the GI50 in the test on RXF 393 is 52.4 µM (inactive); in the test with K562, 45 µM (inactive); in the test with HOP-92, > 100 µM (inactive); in the test with DMS-273, > 100 µM (inactive); in the test on HOP-62, > 100 µM (inactive); in the test on SK-OV-3 it was > 100 µM (inactive). The GI50 with HOP-18 is > 100 µM (inactive); in the test with HCT-116, 46.5 µM (inactive); with 786-0, > 100 µM (inactive); with SF-268 it was > 100 µM (inactive); in the test on SNB-78, > 100 µM (inactive); in the test with U-251, > 100 µM (inactive). The GI50 in the test with SNB-19, in the test on OVCAR-5, with M14, in the test on OVCAR-3 and in the test with SF-295 was > 100 µM (inactive) throughout.
`Cn1c(O)c(C(=O)Nc2cccs2)c(=O)[nH]c1=S`: the GI50 in the test on K562 was 51.9 µM (inactive); in the test with HOP-92, 12.6 µM (inactive); in the test on HOP-62 it was 17.4 µM (inactive); with SK-OV-3, 16 µM (inactive); in the test with HOP-18, 0.0865 µM (active); with HCT-116 it was 13.4 µM (inactive). Also, the GI50 was 20.2 µM (inactive) in the test on 786-0; 18.8 µM (inactive) in the test with SF-268; 18.9 µM (inactive) in the test on SNB-78; 14.8 µM (inactive) in the test on U-251; 28.9 µM (inactive) with SNB-19; 28.6 µM (inactive) with OVCAR-5. In addition, the GI50 in the test with M14 is 23.1 µM (inactive); with OVCAR-3 it was 19.9 µM (inactive); in the test with SF-295, 15.5 µM (inactive).
As for `COc1ccc(NC(=O)CCc2cc(-c3ccc(O)c(OC)c3)nc(NC#N)n2)cc1`, the GI50 in the test with RXF 393, with K562, in the test with HOP-92, in the test on HOP-62, with SK-OV-3 and in the test on HOP-18 was > 100 µM (inactive) each time. Moreover, the GI50 in the test with HCT-116, with 786-0, in the test with SF-268, in the test on SNB-78, in the test on U-251 and in the test with SNB-19 was > 100 µM (inactive) throughout. Besides, the GI50 in the test on OVCAR-5, in the test with M14, with OVCAR-3 and in the test with SF-295 was > 100 µM (inactive) throughout.
In the case of `COc1cc([N+](=O)[O-])ccc1NC(=O)c1cccc([N+](=O)[O-])c1O`, the GI50 is 20.8 µM (inactive) in the test with K562; 36.6 µM (inactive) with HOP-62; 23.1 µM (inactive) in the test with SK-OV-3; 5.32 µM (inactive) with HOP-18; 26.4 µM (inactive) in the test with HCT-116; 32.5 µM (inactive) in the test with SF-268. Moreover, the GI50 with SNB-78 was 27.9 µM (inactive); in the test on U-251, 40.1 µM (inactive); in the test on SNB-19 it was 41.5 µM (inactive); in the test with OVCAR-5, 41.3 µM (inactive); in the test with M14 it was 45 µM (inactive); in the test on OVCAR-3 it was 29.4 µM (inactive). Also, in the test on SF-295, the GI50 was 23.4 µM (inactive).
On to `OCCNCO`, for which the GI50 with RXF 393, in the test with K562, with HOP-92, in the test with DMS-273, in the test with HOP-62 and with SK-OV-3 was > 100 µM (inactive) each time. The GI50 in the test with HCT-116, in the test with 786-0, with SF-268, with SNB-78, in the test on XF498 and in the test with U-251 was > 100 µM (inactive) throughout. The GI50 in the test with SNB-19, with OVCAR-5, in the test with M14, with OVCAR-3 and with SF-295 was > 100 µM (inactive) each time.
Turning to `CS(=O)(=O)C1(Br)S(=O)(=O)OCCOS1(=O)=O`, the GI50 with RXF 393, in the test on K562, with HOP-92, with DMS-273, in the test with HOP-62 and in the test on SK-OV-3 was > 100 µM (inactive) in each case. Also, the GI50 with HCT-116, in the test with 786-0, with SF-268, in the test with SNB-78, in the test with XF498 and in the test with U-251 was > 100 µM (inactive) in each case. In addition, the GI50 in the test on SNB-19, in the test with OVCAR-5, in the test on M14, in the test on OVCAR-3 and with SF-295 was > 100 µM (inactive) in each case.
For the compound `COc1cc(-c2nn3c(=O)n(-c4ccc(Cl)cc4)c(=O)nc3s2)cc(OC)c1OC`, the GI50 was 8.87 µM (inactive) in the test with RXF 393; > 31.6 µM (inactive) in the test with K562; 15.5 µM (inactive) in the test on HOP-92; 23.2 µM (inactive) with DMS-273; 18.4 µM (inactive) in the test on HOP-62; > 50 µM (inactive) in the test with SK-OV-3. The GI50 in the test with HOP-18 was 57 µM (inactive); in the test on HCT-116, 33.7 µM (inactive); with 786-0 it was 12.3 µM (inactive); in the test on SF-268, > 50 µM (inactive); in the test on SNB-78, 19.4 µM (inactive); in the test on U-251, 18 µM (inactive). The GI50 in the test with SNB-19 is 19.1 µM (inactive); in the test with OVCAR-5 it was > 100 µM (inactive); in the test on M14, 39.2 µM (inactive); in the test on OVCAR-3, 54.5 µM (inactive); with SF-295, > 50 µM (inactive).
As for `O=[N+]([O-])C1C2C=CC(C2)[C@H]1c1ccco1` (stereo partly specified), the GI50 in the test on RXF 393 was > 100 µM (inactive); in the test on K562, > 100 µM (inactive); with HOP-92, 0.259 µM (active); with DMS-273, > 100 µM (inactive); in the test with HOP-62, > 100 µM (inactive); in the test with SK-OV-3, > 100 µM (inactive). Besides, the GI50 with HCT-116, with 786-0, with SF-268, in the test on SNB-78, with XF498 and in the test on U-251 was > 100 µM (inactive) throughout. Further, the GI50 in the test on SNB-19, with OVCAR-5, with M14, with OVCAR-3 and with SF-295 was > 100 µM (inactive) each time.
